According to ChEMBL document CHEMBL5724696, “Autophagy assay results for EUbOPEN Chemogenomics Library” (2024):

Legend:
Type in all cases: functional, Homo sapiens
TERT-RPE1 = assay: (§1) Here: values are normalized to the negative (DMSO; defined as 0% autophagy induction) and positive (250nM Torin1; mTOR inhibitor; defined as maximal inducer of autophagy = 100%) control compounds and represented as % of autophagy induction. […] The impact of autophagy induction on cells is complex and depends on the affected target. As such, the magnitude of a phenotype may not be equally mirrored in the %-value of autophagy induction and vice versa. The dynamics of the induction may indicate the mode of activation: e.g. activation via phosphorylation or a signaling cascade may occur fast, while activation via transcription factors may take considerably longer. […] Of note, treatment concentrations may be sub-optimal for specific compounds, leading to false negative annotations.; details: Culturing Media DMEM/F12 (1:1), 1 % Penicillin/Streptomycin, 10% Fetal bovin serum Add-On: No, Screening Media Control DMEM/F12 (1:1), Screening Media Samples DMEM/F12 (1:1)
U2OS [1] = assay: as §1; details: Culturing Media DMEM, 1 % Penicillin/Streptomycin, 10% Fetal bovin serum Add-On: No, Screening Media Control DMEM, Screening Media Samples DMEM
U2OS [2] = assay: as §1; details: Culturing Media DMEM, 1 % Penicillin/Streptomycin, 10% Fetal bovin serum Add-On: No, Screening Media Control DMEM, Screening Media Samples DMEM; remark: listed apart in the source
[3] = Compound Concentration 0.5 uM, Timepoint 12 hours
[4] = Compound Concentration 0.5 uM, Timepoint 24 hours
[5] = Compound Concentration 0.5 uM, Timepoint 36 hours
[6] = Compound Concentration 0.5 uM, Timepoint 60 hours
[7] = Compound Concentration 2 uM, Timepoint 12 hours
[8] = Compound Concentration 2 uM, Timepoint 24 hours
[9] = Compound Concentration 2 uM, Timepoint 36 hours
[10] = Compound Concentration 2 uM, Timepoint 60 hours
[11] = Compound Concentration 10 uM, Timepoint 12 hours
[12] = Compound Concentration 10 uM, Timepoint 24 hours
[13] = Compound Concentration 10 uM, Timepoint 36 hours
[14] = Compound Concentration 10 uM, Timepoint 60 hours

Structure (SMILES): CCOC(=O)c1cc(C#N)c(N2CCC(C(=O)NS(=O)(=O)Cc3ccccc3)CC2)nc1C
- autophagy induction (TERT-RPE1; [3]): -6.976%
- autophagy induction (TERT-RPE1; [4]): -10.3002%
- autophagy induction (TERT-RPE1; [5]): -8.825%
- autophagy induction (TERT-RPE1; [6]): -14.4044%
- autophagy induction (TERT-RPE1; [7]): -3.0862%
- autophagy induction (TERT-RPE1; [8]): -5.808%
- autophagy induction (TERT-RPE1; [9]): -6.285%
- autophagy induction (TERT-RPE1; [10]): -11.624%
- autophagy induction (TERT-RPE1; [11]): -2.8574%
- autophagy induction (TERT-RPE1; [12]): -4.514%
- autophagy induction (TERT-RPE1; [13]): -6.439%
- autophagy induction (TERT-RPE1; [14]): -9.708%
- autophagy induction (U2OS [1]; [3]): -5.45%
- autophagy induction (U2OS [1]; [4]): -2.451%
- autophagy induction (U2OS [1]; [5]): -3.099%
- autophagy induction (U2OS [1]; [6]): -2.587%
- autophagy induction (U2OS [1]; [7]): 4.284%
- autophagy induction (U2OS [1]; [8]): 0.2818%
- autophagy induction (U2OS [1]; [9]): 0.3824%
- autophagy induction (U2OS [1]; [10]): -0.02347%
- autophagy induction (U2OS [1]; [11]): -3.626%
- autophagy induction (U2OS [1]; [12]): -2.74%
- autophagy induction (U2OS [1]; [13]): -1.363%
- autophagy induction (U2OS [1]; [14]): -0.00442%
- autophagy induction (U2OS [2]; [3]): -1.238%
- autophagy induction (U2OS [2]; [4]): -0.869%
- autophagy induction (U2OS [2]; [5]): -0.6019%
- autophagy induction (U2OS [2]; [6]): -13.2748%
- autophagy induction (U2OS [2]; [7]): -11.375%
- autophagy induction (U2OS [2]; [8]): -8.508%
- autophagy induction (U2OS [2]; [9]): -7.086%
- autophagy induction (U2OS [2]; [10]): -3.832%
- autophagy induction (U2OS [2]; [11]): -0.3683%
- autophagy induction (U2OS [2]; [12]): 1.86%
- autophagy induction (U2OS [2]; [13]): -9.343%
- autophagy induction (U2OS [2]; [14]): -16.8017%

Structure (SMILES): Cc1csc(NC(=O)c2cc(F)cc(Oc3cncnc3)c2)n1
- autophagy induction (TERT-RPE1; [3]): -6.573%
- autophagy induction (TERT-RPE1; [4]): -11.4508%
- autophagy induction (TERT-RPE1; [5]): -15.1452%
- autophagy induction (TERT-RPE1; [6]): -20.0235%
- autophagy induction (TERT-RPE1; [7]): -3.733%
- autophagy induction (TERT-RPE1; [8]): -9.437%
- autophagy induction (TERT-RPE1; [9]): -10.535%
- autophagy induction (TERT-RPE1; [10]): -13.1148%
- autophagy induction (TERT-RPE1; [11]): -2.429%
- autophagy induction (TERT-RPE1; [12]): -5.833%
- autophagy induction (TERT-RPE1; [13]): -5.079%
- autophagy induction (TERT-RPE1; [14]): -4.061%
- autophagy induction (U2OS [1]; [3]): -6.672%
- autophagy induction (U2OS [1]; [4]): -2.592%
- autophagy induction (U2OS [1]; [5]): -1.939%
- autophagy induction (U2OS [1]; [6]): -1.765%
- autophagy induction (U2OS [1]; [7]): -5.1627%
- autophagy induction (U2OS [1]; [8]): -3.72%
- autophagy induction (U2OS [1]; [9]): -2.553%
- autophagy induction (U2OS [1]; [10]): -1.843%
- autophagy induction (U2OS [1]; [11]): -2.289%
- autophagy induction (U2OS [1]; [12]): -0.7242%
- autophagy induction (U2OS [1]; [13]): -0.5379%
- autophagy induction (U2OS [1]; [14]): -1.609%
- autophagy induction (U2OS [2]; [3]): -16.3524%
- autophagy induction (U2OS [2]; [4]): -14.7733%
- autophagy induction (U2OS [2]; [5]): -11.9866%
- autophagy induction (U2OS [2]; [6]): -8.75%
- autophagy induction (U2OS [2]; [7]): -9.821%
- autophagy induction (U2OS [2]; [8]): -11.197%
- autophagy induction (U2OS [2]; [9]): -11.4826%
- autophagy induction (U2OS [2]; [10]): -11.3338%
- autophagy induction (U2OS [2]; [11]): -1.626%
- autophagy induction (U2OS [2]; [12]): -3.326%
- autophagy induction (U2OS [2]; [13]): -2.706%
- autophagy induction (U2OS [2]; [14]): -7.422%

Structure (SMILES): CCCCN(CCCC)C(=O)CN1C[C@@H](c2ccc3c(c2)OCO3)[C@H](C(=O)O)[C@H]1c1ccc(OC)cc1
- autophagy induction (TERT-RPE1; [3]): -5.689%
- autophagy induction (TERT-RPE1; [4]): -7.876%
- autophagy induction (TERT-RPE1; [5]): -10.2076%
- autophagy induction (TERT-RPE1; [6]): -16.9579%
- autophagy induction (TERT-RPE1; [7]): -2.05%
- autophagy induction (TERT-RPE1; [8]): -6.33%
- autophagy induction (TERT-RPE1; [9]): -9.375%
- autophagy induction (TERT-RPE1; [10]): -15.3533%
- autophagy induction (TERT-RPE1; [11]): 0.4134%
- autophagy induction (TERT-RPE1; [12]): 0.2558%
- autophagy induction (TERT-RPE1; [13]): -0.8322%
- autophagy induction (TERT-RPE1; [14]): -6.302%
- autophagy induction (U2OS [1]; [3]): -1.434%
- autophagy induction (U2OS [1]; [4]): -1.039%
- autophagy induction (U2OS [1]; [5]): -0.6288%
- autophagy induction (U2OS [1]; [6]): -0.1138%
- autophagy induction (U2OS [1]; [7]): -9.274%
- autophagy induction (U2OS [1]; [8]): -4.861%
- autophagy induction (U2OS [1]; [9]): -2.29%
- autophagy induction (U2OS [1]; [10]): -1.949%
- autophagy induction (U2OS [1]; [11]): 6.695%
- autophagy induction (U2OS [1]; [12]): 2.81%
- autophagy induction (U2OS [1]; [13]): 1.829%
- autophagy induction (U2OS [1]; [14]): -0.9275%
- autophagy induction (U2OS [2]; [3]): -15.0632%
- autophagy induction (U2OS [2]; [4]): -6.645%
- autophagy induction (U2OS [2]; [5]): -7.125%
- autophagy induction (U2OS [2]; [6]): -16.2807%
- autophagy induction (U2OS [2]; [7]): -9.31%
- autophagy induction (U2OS [2]; [8]): -9.369%
- autophagy induction (U2OS [2]; [9]): -11.2096%
- autophagy induction (U2OS [2]; [10]): -4.989%
- autophagy induction (U2OS [2]; [11]): 9.199%
- autophagy induction (U2OS [2]; [12]): 8.705%
- autophagy induction (U2OS [2]; [13]): 6.119%
- autophagy induction (U2OS [2]; [14]): 4.931%
